Test results: patent US20180237751A1, “METHOD FOR GENERATING BETA CELLS” (THE TRUSTEES OF COLUMBIA UNIVERSITY IN THE CITY OF NEW YORK, priority 2011, published 2018)

Legend:
Assay type in all cases: cell-based, human
[1] = system: GCK mutant iPS-derived beta-like cells; experiment: Insulin (C-peptide) secretion assay in vitro, GCK mutant beta-like cells; settings: 1 hour, identical to control cells
Protocol: Typically, cells were cultured in 12-well dishes. After 12 days of differentiation, cells were washed for 1 hour in CMRL medium. Cells were then incubated in 300 μl CMRL medium containing 5.6 mM glucose for 1 hour and the medium was collected. Subsequently, 300 μl CMRL medium containing 16.9 mM glucose or other secretagogues was used to treat cells for 1 hour, following which the medium was collected. For in vivo tests, mice were deprived of food overnight with ad libitium access to water. After 12-14 hours of fasting, capillary blood glucose concentrations were determined by tail vein bleed using an AlphaTRACK glucometer (Abbott). Venous blood samples were collected via the submandibular vein. Intraperitoneal glucose was then administered (1 mg/g body weight) and ½ hour later blood samples were obtained via the submandibular vein. Blood samples were kept at room temperature for 2 hours and serum was obtained by centrifuging blood samples at 4000 rpm for 15 min. C-peptide concentrations in medium or mouse serum were measure using an ultrasensitive human C-peptide ELISA kit according to manufacturer's instructions (Mercodia). […]
Typically, cells were cultured in 12-well dishes. […] After 12-14 hours of fasting, capillary blood glucose concentrations were determined by tail bleed using an AlphaTRACK glucometer (Abbott). […]

Wolfram beta cells [2] = experiment: UPR, insulin and proinsulin content and ER morphology in Wolfram beta cells
Protocol: (§1) Human ES or iPS cells were dissociated by Dispase (3-5 mins) and Accutase (5 mins, Sigma). Cells were suspended in human ES medium containing 10 μM Y27632, a ROCK inhibitor, and filtered through a 70 μm cell strainer. Then cells were seeded at a density of 800,000 cells/well in 12-well plates. After 1 or 2 days, when cells reached 80-90% confluence, differentiation was started. On Day 1: cells were briefly washed once with RPMI medium, then were treated with Activin A (100 ng/ml), Wnt3A (25 ng/ml) and 0.075 mM EGTA in RPMI medium. On day 2-3: cells were treated with Activin A (100 ng/ml) and 0.2% FBS in RPMI medium. On day 4-5: cells were treated with FGF10 (50 ng/ml), KAAD-cyclopamine (0.25 μM) and 2% FBS in RPMI medium. On day 6-8: cells were treated with FGF10 (50 ng/ml), KAAD-cyclopamine ([…] (2 μM) and LDN-193189 (250 nM), B27 in DMEM medium. On day 9-10: cells were treated with exendin-4 (50 ng/ml), SB431542 (2 μM) and B27 in CMRL medium. On day 11-12, cells were treated with T4 (thyroid hormone, 0.02 nM) and B27 in CMRL medium. After day 12, cells were incubated in CMRL medium with B27. Cells were analyzed between day 14 and day 16.
(§2) Wolfram and control iPSCs or fibroblasts were incubated with indicated dosages of thapsigargin (TG) or tunicamycin (TM) (Both were from Sigma) for 6 hours after an overnight starvation. 1 mM Sodium 4-phenylbutyrate (4PBA) (EMD Chemicals Inc.) was administrated one hour prior to and through TG or TM treatment. Cells were harvested and subjected to RNA and protein analysis. In vitro differentiated beta cells were treated with 10 nM TG for 12 hours, or 0.5 μg/ml TM for 6 hours with or without 1 mM 4PBA treatment one hour prior to and through TG or TM treatment. For long-term 4PBA treatment, cells were incubated with 1 mM 4PBA starting on day 9 of differentiation, when cells reached pancreatic endoderm stage, and maintained until day 15. Then cells were subjected to insulin secretion, RNA and protein analysis. RNA was isolated using RNAeasy plus kit (Qiagen). cDNA was generated by using RT kit (Promega). Primers for PCR analysis were as follows: XBP-1 for gel-imaging (Lee, Won et al.) forward 5′ […] 3′ (SEQ ID NO:1), reverse 5′ […] 3′ (SEQ ID NO:2); sXBP-1 for QPCR (Merquiol, Uzi et al. 2011) forward 5′ CTGAGTCCGCAGCAGGTG 3′(SEQ ID NO:3), reverse 5′ […] 3′ (SEQ ID NO:4); GRP78 forward 5′ […] 3′(SEQ ID NO:5), reverse 5′ […] 3′ (SEQ ID NO:6); Insulin forward 5′ […] 3′(SEQ ID NO:7), reverse 5′ CAATGCCACGCTTCTGC 3′(SEQ ID NO:8). GRP78 protein level was determined by western blot using mouse-anti GRP78 antibody (Santa Cruz, sc-166490).
(§3) To determine Insulin or proinsulin content within the cell, differentiated cells were collected and lysed by M-PER protein extraction reagent (Thermo Scientific). Proinsulin and insulin contents were measured by using human proinsulin and insulin ELISA kits (Mercodia). Quantification of positively stained cells was analyzed using Celigo Cytometer system (Cyntellect), and flow cytometry analysis. To normalize insulin content to beta cell number, cultures were dissociated to single cells, and divided into three fractions: 20% of cells for cell number quantification, 40% for RNA analysis and 40% for ELISA assay to determine insulin content.
Differentiated beta cells were treated with or without 10 nM TG for 12 hours, and then fixed in 2.5% glutaraldehyde in 0.1 M Sorenson's buffer (pH 7.2) for one hour. Samples were processed and imaged by Dignostic Service, Department of Pathology and Cell Biology, Columbia University. Secretory granule structure and endoplasmic reticulum (ER) morphology were visually recognized. The number of granules was determined using ImageJ software.

control beta cells [3] = experiment: UPR, insulin and proinsulin content and ER morphology in control beta cells
Protocol: as §1
Wolfram and control iPSCs or fibroblasts were incubated with indicated dosages of thapsigargin (TG) or tunicamycin (TM) (Both were from Sigma) for 6 hours after an overnight starvation. 1 mM Sodium 4-phenylbutyrate (4PBA) (EMD Chemicals Inc.) was administrated one hour prior to and through TG or TM treatment. Cells were harvested and subjected to RNA and protein analysis. In vitro differentiated beta cells were treated with 10 nM TG for 12 hours, or 0.5 μg/ml TM for 6 hours with or without 1 mM 4PBA treatment one hour prior to and through TG or TM treatment. […] GRP78 protein level was determined by western blot using mouse-anti GRP78 antibody (Santa Cruz, sc-166490).
as §3
Differentiated beta cells were treated with or without 10 nM TG for 12 hours, and then fixed in 2.5% glutaraldehyde in 0.1 M Sorenson's buffer (pH 7.2) for one hour. […] The number of granules was determined using ImageJ software.

control beta cells [4] = experiment: In vitro insulin and glucagon secretion assay, control beta cells
Protocol: as §2
(§4) Cells were cultured in 12-well dishes. After 14 days of differentiation, cells were washed for 1 hour in CMRL medium, then incubated in 300 μl CMRL medium containing 5.6 mM glucose for 1 hour and the medium was collected. After that, 300 μl CMRL medium containing 16.9 mM glucose, or 15 mM arginine, or 30 mM potassium, or 1 mM DBcAMP+16.9 mM glucose was used to treat cells for 1 hour and then the medium was collected. Human C-peptide concentration in the medium was measured by ultra-sensitive human C-peptide ELISA kit according to manufacturer's instructions (Mercodia). Glucagon levels in medium were measured by using Glucagon ELISA kit (ALPCO Diagnostics).

Wolfram iPS cells = experiment: Unfolded protein response (UPR) analysis, Wolfram iPS cells and fibroblasts
Protocol: as §2

control iPS cells = experiment: Unfolded protein response (UPR) analysis, control iPS cells; settings: 10 nM TG, 6 hour
Protocol: as §2, with “3′(SEQ ID NO:7), reverse 5′ CAATGCCACGCTTCTGC 3′(SEQ ID NO:8).” left out

Wolfram beta cells [5] = experiment: In vitro insulin and glucagon secretion assay, Wolfram beta cells
Protocol: as §2, §4

[6] = Wolfram beta cells, TG 10 nM, 12 hours
[7] = control cells, arginine stimulation, TG treatment

With `COC(=O)C1=C(C)NC(C)=C([N+](=O)[O-])C1c1ccccc1C(F)(F)F` (stereo not drawn) [Bay K8644] as the compound, how does the “increase in C-peptide release” value ([1]; GCK^G299R/+ and GCK^G299R/hygro cells) read?
The value was 3-5 fold.

And the “increase in C-peptide release” value ([1]; GCK^G299R/+ cells)?
Its value is 5 fold.

What does the source list for `C/C=C(/C)C(=O)O[C@H]1C(C)=C2[C@H]([C@@H]1OC(=O)CCCCCCC)[C@@](C)(OC(C)=O)C[C@H](OC(=O)CCC)[C@@]1(O)[C@H]2OC(=O)[C@@]1(C)O` [TG, thapsigargin]?
proinsulin to insulin ratio (Wolfram beta cells [2]; Wolfram beta cells challenged with TG, ~0.55 without TG): 0.73; ER morphology (TEM) (Wolfram beta cells [2]; Wolfram beta cells, 12 hours of 10 nM TG): greatly dilated; reduction of insulin production at the mRNA level (Wolfram beta cells [2]; [6]): 46%; reduction of insulin production at the protein level (Wolfram beta cells [2]; [6]): 31%; proinsulin to insulin ratio (control beta cells [3]; control beta cells challenged with TG, ~0.47 without TG): 0.51; ER morphology (TEM) (control beta cells [3]; control cells, 12 hours of 10 nM TG): remained unaffected; production of insulin (control beta cells [3]; control cells, TG 10 nM, 12 hours): unaffected; increase of insulin output in response to 16.9 mM glucose (control beta cells [4]; TG treated control beta cells (10 nM, 12 hour)): 1.6 fold; reduction of stimulated glucagon secretion (control beta cells [4]; [7]): 28%; reduction of stimulated insulin secretion (control beta cells [4]; [7]): −3%; increase of GRP78 mRNA (Wolfram iPS cells; Wolfram cells, 10 nM TG, 6 hour): 4 fold; GRP78 mRNA level (Wolfram iPS cells; stem cells, increasing concentration of TG, 6 hours): dose-dependent increase; increase of GRP78 mRNA (control iPS cells): 2 fold; insulin secretion in response to 16.9 mM glucose (Wolfram beta cells [5]; TG treated Wolfram cells (10 nM, 12 hour)): failed to increase insulin secretion; reduction of stimulated glucagon secretion (Wolfram beta cells [5]; WFS1 cells, arginine stimulation, TG treatment): 24%; reduction of stimulated insulin secretion (Wolfram beta cells [5]; WFS1 mutant cells, arginine stimulation, TG treatment): 43%; response to DBcAMP (C-peptide secretion) (Wolfram beta cells [5]; Wolfram beta cells treated with TG, 2.6 without TG): 1.2 fold; insulin-secretion in response to potassium (Wolfram beta cells [5]; Wolfram beta cells treated with TG, 3.9 without TG): 2.2 fold; fold increase of C-peptide in the medium in response to arginine (Wolfram beta cells [5]; Wolfram beta cells treated with TG, 4.0 without TG): 2.3 fold
